The record followed here is patent US20210154190A1, “SHP2 INHIBITOR COMPOSITIONS AND METHODS FOR TREATING CANCER” (Revolution Medicines, Inc., priority 2018, published 2021).

Assay type in all cases: biochemical
One assay addresses T1, human SHP2-FL D61G (Homo sapiens, UniProt Q06124, D61G).
T1 sequence (Q06124 1-593 D61G): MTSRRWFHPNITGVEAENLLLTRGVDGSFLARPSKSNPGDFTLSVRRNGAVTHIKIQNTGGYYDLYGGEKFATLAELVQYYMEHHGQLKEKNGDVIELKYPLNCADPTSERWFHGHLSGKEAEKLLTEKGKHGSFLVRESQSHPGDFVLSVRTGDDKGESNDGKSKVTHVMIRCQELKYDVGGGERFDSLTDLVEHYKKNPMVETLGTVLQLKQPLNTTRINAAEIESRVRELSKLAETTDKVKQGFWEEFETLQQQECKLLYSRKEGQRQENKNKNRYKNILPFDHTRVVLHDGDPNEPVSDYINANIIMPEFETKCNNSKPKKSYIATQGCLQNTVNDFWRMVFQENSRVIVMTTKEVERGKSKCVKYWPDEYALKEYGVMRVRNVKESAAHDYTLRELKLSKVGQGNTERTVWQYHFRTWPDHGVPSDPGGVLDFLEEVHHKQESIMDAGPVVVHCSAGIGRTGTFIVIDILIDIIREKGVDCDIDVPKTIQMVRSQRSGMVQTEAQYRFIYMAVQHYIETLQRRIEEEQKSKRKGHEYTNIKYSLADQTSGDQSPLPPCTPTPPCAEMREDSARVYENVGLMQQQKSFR
In words: SHP2 allosteric inhibition assay (DiFMUP), D61G. Particulars: for IC50: SHP2 D61G. Here is the method:
(§1) Full-length SHP2 is allosterically activated through binding of bis-tyrosyl-phorphorylated peptides to its Src Homology 2 (SH2) domains. The latter activation step leads to the release of the auto-inhibitory interface of SHP2, which in turn renders the SHP2 protein tyrosine phosphatase (PTP) active and available for substrate recognition and reaction catalysis. The catalytic activity of SHP2 was monitored using the surrogate substrate DiFMUP in a prompt fluorescence assay format.
(§2) […] […] 50 μl stop solution (0.1 mM sodium pervanadate) was added to each well, the plate was shaken briefly to mix, and read in endpoint mode on a SpectraMax M5 plate reader (Molecular Devices) using excitation and emission wavelengths of 340 nm and 450 nm. Data was imported into GraphPad Prism. Plots of fluorescence intensity vs. log Molar [compound] were created and modeled with a 3-parameter sigmoidal concentration response equation in order to estimate IC50.
(§3) Reactions were then allowed to proceed for 30 minutes and stopped by the addition of a phosphatase inhibitor, sodium pervanadate. De-phosphorylation of DiFMUP results in production of a fluorescent product. Product fluorescence was determined and plotted as a function of compound concentration in order to determine the IC50 for each compound on each mutant using a four parameter sigmoidal dose response function in Prism (GraphPad).
(§4) NsCs mimics the role of the cytosolic domain of a protein tyrosine kinase in this model system.

In another assay the target is T2, human SHP2-FL wild type (Homo sapiens, UniProt Q06124).
T2 sequence (Q06124 1-593): T1 sequence (Q06124 1-593 D61G) with G61D
In words: SHP2 allosteric inhibition assay (DiFMUP), wild type. On the procedure: as §1, §2, §3, §4

A further assay has as its target T3, human SHP2-FL S189A (Homo sapiens, UniProt Q06124, S189A).
T3 sequence (Q06124 1-593 S189A): T1 sequence (Q06124 1-593 D61G) with G61D, S189A
In words: SHP2 allosteric inhibition assay (DiFMUP), S189A. On the procedure: as §1, §2, §3, §4

Changes are numbered by the printed parent chain. Several values for one entry are separate records, joined by “and”; a condition that tells them apart may be missing. Equal values may be shown once. Read-outs that look alike come from different tables or passages of the source.

`Nc1nc(N2CCC3(CCC[C@H]3N)CC2)cnc1Sc1ccnc(Cl)c1Cl` [Compound 1]: the IC50 on human SHP2-FL D61G (0.5 μM NsCs peptide (Activated), read-out: IC50) was 185 nM and 219 nM and 198 nM and 191 nM; at human SHP2-FL D61G (0.5 μM NsCs peptide (Activated), read-out: pIC50 (converted)), 186 nM and 219 nM and 200 nM and 191 nM; on human SHP2-FL D61G (No Peptide Control (Non-Activated), read-out: IC50) it was 1.85 nM and 2.45 nM and 1.6 nM and 1.81 nM; on human SHP2-FL D61G (No Peptide Control (Non-Activated), read-out: pIC50 (converted)), 1.86 nM and 2.45 nM and 1.58 nM and 1.82 nM; at human SHP2-FL wild type (Wild-type SHP2, 0.5 μM NsCs peptide (Activated), read-out: IC50), 2.62 nM and 2.69 nM and 2.12 nM and 2.37 nM; at human SHP2-FL wild type (Wild-type SHP2, 0.5 μM NsCs peptide (Activated), read-out: pIC50 (converted)), 2.63 nM and 2.69 nM and 2.14 nM and 2.34 nM. Also, the IC50 at human SHP2-FL wild type (Wild-type SHP2, No Peptide Control (Non-Activated), read-out: IC50) is 2.01 nM and 2.43 nM and 1.36 nM and 2.24 nM; on human SHP2-FL wild type (Wild-type SHP2, No Peptide Control (Non-Activated), read-out: pIC50 (converted)) it was 2 nM and 2.45 nM and 1.35 nM and 2.24 nM; at human SHP2-FL S189A (IC50 (nM), SHP2 S189A 0.5 μM NsCs peptide (Activated), human SHP2-FL S189A, 0.5 μM NsCs peptide (activated)), 3.38 nM and 3.76 nM and 2.99 nM and 3.79 nM; at human SHP2-FL S189A (human SHP2-FL S189A alone, no peptide (non-activated), read-out: IC50 (nM), SHP2 S189A No Peptide Control (Non-Activated)), 3.01 nM and 3.35 nM and 2.75 nM and 3.11 nM; on human SHP2-FL S189A (human SHP2-FL S189A alone, no peptide (non-activated), read-out: pIC50, SHP2 S189A No Peptide Control (Non-Activated) (converted)), 3.02 nM and 3.31 nM and 2.75 nM and 3.09 nM; against human SHP2-FL S189A (pIC50, SHP2 S189A 0.5 μM NsCs peptide (Activated), human SHP2-FL S189A, 0.5 μM NsCs peptide (activated)) it was 3.39 nM and 3.72 nM and 3.02 nM and 3.8 nM.
For the compound `Cc1nc(N2CCC3(CC2)CO[C@@H](C)[C@H]3N)c(CO)nc1-c1cccc(Cl)c1Cl` [Compound B], the Biochemical sensitivity result on human SHP2-FL D61G (Variant D61G), at human SHP2-FL wild type (Variant WT) and on human SHP2-FL S189A (Variant S189A) was “yes (Sensitive if IC50 < 2000 nM)” in each case.
